# Test results as given in patent EP1660884B1, “CROWN ETHER DERIVATIVES” (Life Technologies Corporation, priority 2003, dated 2005).
# Entries after “also recorded” stand apart in the source; their conditions may differ.
# Tested on: Jurkat cells
# Test: Calibration of sodium indicator fluorescence response in cells (flow cytometry)
# Format: cell-based
# Settings: Jurkat cells loaded with 5 µM for 30 minutes at 37 °C, 2 µM gramicidin, extracellular Na+ 0-145 mM, excitation at 488 nm
# Experimental: Example 3: Calibration of sodium indicator fluorescence response in cells.
# Jurkat cells were loaded with a 5 µM solution of either Compound 25 (a compound according to Formula (I) as shown below), or commercially available SODIUM GREEN tetraacetate indicator (Molecular Probes, Inc., Eugene, OR) and 10 µM for Compound 87 (Example 9) for 30 minutes at 37 °C. The use of PLURONIC dispersing agent helped dissolve the selected indicator. Intracellular sodium concentrations were then established by varying the sodium concentration of the extracellular buffer in the presence of 2 µM gramicidin (a sodium-pore forming antibiotic). The extracellular buffer was set at 0 mM, 10 mM, 20 mM, 50 mM, 100 mM, and 145 mM, respectively. Intracellular fluorescence response of the selected indicators was measured using a FACSCAN flow cytometer and associated software, with fluorescence excitation at 488 nm.
compound,measurement,setting,value
CC(=O)OCOC(=O)CN1CCOCCN(CC(=O)OCOC(C)=O)c2ccc(-c3c4cc(F)c(=O)cc-4oc4cc(OCOC(C)=O)c(F)cc34)cc2OCCOc2cc(C)ccc21 [Compound 25],intracellular fluorescence intensity as intracellular Na^+ concentration was increased,,consistent increase in fluorescence intensity
same,intracellular fluorescence intensity compared with SODIUM GREEN indicator,Figure 3,substantially brighter intracellular fluorescence intensity than the SODIUM GREEN indicator; also recorded: stronger fluorescence intensity than SODIUM GREEN sodium indicator
